Reference: ChEMBL document CHEMBL5465560, “Selectivity Literature for EUbOPEN Chemogenomic Library” (2024)

Tests used:
[1] = molecular target: Misshapen-like kinase 1 (Homo sapiens, UniProt Q8N4C8); assay: Selectivity interaction (Kinase panel (literature)) EUB0001199aCl MINK1; conditions: at 1 µM
[2] = molecular target: Proto-oncogene tyrosine-protein kinase ROS (Homo sapiens) (UniProt P08922); assay: Selectivity interaction (Kinase panel (Z-LYTE Assay)) EUB0001632a ROS1; conditions: at 10 µM
[3] = molecular target: T1, Cytoplasmic tyrosine-protein kinase BMX (Homo sapiens) (UniProt P51813); assay: Selectivity interaction (ProQinase) EUB0000171b BMX
T1 sequence (whole entry): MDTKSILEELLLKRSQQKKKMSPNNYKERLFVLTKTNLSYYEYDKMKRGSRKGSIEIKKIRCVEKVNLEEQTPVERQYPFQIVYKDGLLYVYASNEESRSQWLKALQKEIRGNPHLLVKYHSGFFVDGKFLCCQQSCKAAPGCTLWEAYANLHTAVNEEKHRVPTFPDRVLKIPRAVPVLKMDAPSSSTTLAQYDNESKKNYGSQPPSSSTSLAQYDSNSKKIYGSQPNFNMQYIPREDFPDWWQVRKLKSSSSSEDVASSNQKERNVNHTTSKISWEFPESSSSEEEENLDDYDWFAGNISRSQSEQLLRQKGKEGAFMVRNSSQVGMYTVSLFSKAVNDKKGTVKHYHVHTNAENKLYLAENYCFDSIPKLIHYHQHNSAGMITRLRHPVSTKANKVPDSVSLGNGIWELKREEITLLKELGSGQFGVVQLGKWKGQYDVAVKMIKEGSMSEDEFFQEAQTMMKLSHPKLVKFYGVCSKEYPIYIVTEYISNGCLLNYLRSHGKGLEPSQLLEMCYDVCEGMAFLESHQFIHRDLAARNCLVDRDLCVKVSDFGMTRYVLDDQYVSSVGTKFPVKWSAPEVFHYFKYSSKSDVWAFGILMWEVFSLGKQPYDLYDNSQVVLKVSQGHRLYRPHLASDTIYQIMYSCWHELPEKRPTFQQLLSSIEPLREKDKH

[4] = test system: Epidermal growth factor receptor (Homo sapiens), P00533 [UNDEFINED MUTATION]; assay: Selectivity interaction (KinomeScan (DiscoverX)) EUB0001619a EGFR; conditions: at 1 µM
[5] = molecular target: T2, Inhibitor of nuclear factor kappa-B kinase subunit beta (Homo sapiens) (UniProt O14920); assay: Selectivity interaction (KinomeScan (DiscoverX)) EUB0001619a IKBKB; conditions: at 1 µM
T2 sequence (whole entry): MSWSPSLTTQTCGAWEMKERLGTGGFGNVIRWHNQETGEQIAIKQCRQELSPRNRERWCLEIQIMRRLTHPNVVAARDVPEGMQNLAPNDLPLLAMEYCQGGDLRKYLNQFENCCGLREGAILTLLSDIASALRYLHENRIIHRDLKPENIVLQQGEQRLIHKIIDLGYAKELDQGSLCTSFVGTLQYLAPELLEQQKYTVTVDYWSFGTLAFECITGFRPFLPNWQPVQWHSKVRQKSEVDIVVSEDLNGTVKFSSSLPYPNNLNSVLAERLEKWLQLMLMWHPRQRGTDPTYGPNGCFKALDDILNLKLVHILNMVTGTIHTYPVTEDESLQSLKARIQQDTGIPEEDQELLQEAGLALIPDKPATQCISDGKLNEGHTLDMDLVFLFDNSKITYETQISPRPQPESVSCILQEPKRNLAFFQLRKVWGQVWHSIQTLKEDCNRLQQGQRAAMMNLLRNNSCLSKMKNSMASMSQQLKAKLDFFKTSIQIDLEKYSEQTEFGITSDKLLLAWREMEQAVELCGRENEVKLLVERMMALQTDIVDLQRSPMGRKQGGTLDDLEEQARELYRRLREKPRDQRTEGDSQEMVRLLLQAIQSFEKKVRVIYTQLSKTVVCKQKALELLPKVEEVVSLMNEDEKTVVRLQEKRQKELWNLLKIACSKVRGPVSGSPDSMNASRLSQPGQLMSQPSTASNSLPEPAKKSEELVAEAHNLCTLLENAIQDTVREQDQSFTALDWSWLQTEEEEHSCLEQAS

[6] = molecular target: Casein kinase I isoform gamma-2 (Homo sapiens) (UniProt P78368); assay: Selectivity interaction (KinomeScan (DiscoverX)) EUB0001619a CSNK1G2; conditions: at 1 µM
[7] = test system: Mast/stem cell growth factor receptor Kit (Homo sapiens), P10721 [V559D,V654A]; assay: (§1) Selectivity interaction (KinomeScan (DiscoverX)) EUB0000618a KIT; conditions: at 10 µM
[8] = test system: Mast/stem cell growth factor receptor Kit (Homo sapiens), P10721 [A829P]; assay: as §1; conditions: at 10 µM
[9] = test system: Mast/stem cell growth factor receptor Kit (Homo sapiens), P10721 [D816V]; assay: as §1; conditions: at 10 µM
[10] = molecular target: Mast/stem cell growth factor receptor Kit (Homo sapiens, UniProt P10721); assay: as §1; conditions: at 10 µM
[11] = test system: Mast/stem cell growth factor receptor Kit (Homo sapiens), P10721 [L576P]; assay: as §1; conditions: at 10 µM
[12] = molecular target: Sodium-dependent dopamine transporter (Homo sapiens, UniProt Q01959); assay: Selectivity interaction (Safety Panel 44tm (Eurofins)) EUB0000162b SLC6A3; conditions: at 10 µM
[13] = molecular target: T3, Mitogen-activated protein kinase 13 (Homo sapiens) (UniProt O15264); assay: Selectivity interaction (Kinase panel (DSF assay)) EUB0001559a MAPK13
T3 sequence (whole entry): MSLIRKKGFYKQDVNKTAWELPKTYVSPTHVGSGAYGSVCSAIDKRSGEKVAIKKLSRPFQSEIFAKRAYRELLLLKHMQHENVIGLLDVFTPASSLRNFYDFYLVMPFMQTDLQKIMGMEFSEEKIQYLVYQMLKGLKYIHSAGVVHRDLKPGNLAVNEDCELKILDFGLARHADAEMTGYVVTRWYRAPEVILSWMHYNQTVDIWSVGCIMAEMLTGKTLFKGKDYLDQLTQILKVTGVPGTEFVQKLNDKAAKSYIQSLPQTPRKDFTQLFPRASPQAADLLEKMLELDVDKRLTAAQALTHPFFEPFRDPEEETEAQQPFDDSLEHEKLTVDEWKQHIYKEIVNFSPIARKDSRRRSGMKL

Sequence of Mast/stem cell growth factor receptor Kit (P10721 whole entry): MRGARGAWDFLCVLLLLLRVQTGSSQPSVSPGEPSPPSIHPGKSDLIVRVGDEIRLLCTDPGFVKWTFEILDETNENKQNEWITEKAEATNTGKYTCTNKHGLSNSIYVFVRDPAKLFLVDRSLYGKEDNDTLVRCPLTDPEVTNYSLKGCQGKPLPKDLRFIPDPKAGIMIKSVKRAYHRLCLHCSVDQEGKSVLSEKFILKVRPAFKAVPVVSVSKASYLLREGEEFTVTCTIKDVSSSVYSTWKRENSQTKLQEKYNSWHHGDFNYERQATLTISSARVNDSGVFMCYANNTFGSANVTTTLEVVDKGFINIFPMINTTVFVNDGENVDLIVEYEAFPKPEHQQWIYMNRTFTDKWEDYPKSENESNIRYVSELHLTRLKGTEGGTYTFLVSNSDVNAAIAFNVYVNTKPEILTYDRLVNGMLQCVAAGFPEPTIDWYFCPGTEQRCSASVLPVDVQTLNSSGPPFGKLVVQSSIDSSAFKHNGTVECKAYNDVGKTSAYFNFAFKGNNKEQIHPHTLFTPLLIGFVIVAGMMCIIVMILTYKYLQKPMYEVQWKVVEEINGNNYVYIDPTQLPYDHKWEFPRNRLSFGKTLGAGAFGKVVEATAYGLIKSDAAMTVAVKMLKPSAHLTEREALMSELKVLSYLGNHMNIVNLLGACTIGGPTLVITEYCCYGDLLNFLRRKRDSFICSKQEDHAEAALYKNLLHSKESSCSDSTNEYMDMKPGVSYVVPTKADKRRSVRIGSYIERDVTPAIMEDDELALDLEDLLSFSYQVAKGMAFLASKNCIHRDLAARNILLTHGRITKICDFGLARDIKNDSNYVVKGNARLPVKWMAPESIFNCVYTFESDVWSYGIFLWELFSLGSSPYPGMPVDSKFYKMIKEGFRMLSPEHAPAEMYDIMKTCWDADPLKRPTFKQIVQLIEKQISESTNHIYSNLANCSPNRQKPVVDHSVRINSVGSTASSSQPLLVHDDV
Sequence of Mast/stem cell growth factor receptor Kit (Homo sapiens), P10721 [A829P] (P10721 whole entry A829P): as the sequence (P10721 whole entry) above, with A829P counted along it
Sequence of Proto-oncogene tyrosine-protein kinase ROS (Homo sapiens) (P08922 whole entry): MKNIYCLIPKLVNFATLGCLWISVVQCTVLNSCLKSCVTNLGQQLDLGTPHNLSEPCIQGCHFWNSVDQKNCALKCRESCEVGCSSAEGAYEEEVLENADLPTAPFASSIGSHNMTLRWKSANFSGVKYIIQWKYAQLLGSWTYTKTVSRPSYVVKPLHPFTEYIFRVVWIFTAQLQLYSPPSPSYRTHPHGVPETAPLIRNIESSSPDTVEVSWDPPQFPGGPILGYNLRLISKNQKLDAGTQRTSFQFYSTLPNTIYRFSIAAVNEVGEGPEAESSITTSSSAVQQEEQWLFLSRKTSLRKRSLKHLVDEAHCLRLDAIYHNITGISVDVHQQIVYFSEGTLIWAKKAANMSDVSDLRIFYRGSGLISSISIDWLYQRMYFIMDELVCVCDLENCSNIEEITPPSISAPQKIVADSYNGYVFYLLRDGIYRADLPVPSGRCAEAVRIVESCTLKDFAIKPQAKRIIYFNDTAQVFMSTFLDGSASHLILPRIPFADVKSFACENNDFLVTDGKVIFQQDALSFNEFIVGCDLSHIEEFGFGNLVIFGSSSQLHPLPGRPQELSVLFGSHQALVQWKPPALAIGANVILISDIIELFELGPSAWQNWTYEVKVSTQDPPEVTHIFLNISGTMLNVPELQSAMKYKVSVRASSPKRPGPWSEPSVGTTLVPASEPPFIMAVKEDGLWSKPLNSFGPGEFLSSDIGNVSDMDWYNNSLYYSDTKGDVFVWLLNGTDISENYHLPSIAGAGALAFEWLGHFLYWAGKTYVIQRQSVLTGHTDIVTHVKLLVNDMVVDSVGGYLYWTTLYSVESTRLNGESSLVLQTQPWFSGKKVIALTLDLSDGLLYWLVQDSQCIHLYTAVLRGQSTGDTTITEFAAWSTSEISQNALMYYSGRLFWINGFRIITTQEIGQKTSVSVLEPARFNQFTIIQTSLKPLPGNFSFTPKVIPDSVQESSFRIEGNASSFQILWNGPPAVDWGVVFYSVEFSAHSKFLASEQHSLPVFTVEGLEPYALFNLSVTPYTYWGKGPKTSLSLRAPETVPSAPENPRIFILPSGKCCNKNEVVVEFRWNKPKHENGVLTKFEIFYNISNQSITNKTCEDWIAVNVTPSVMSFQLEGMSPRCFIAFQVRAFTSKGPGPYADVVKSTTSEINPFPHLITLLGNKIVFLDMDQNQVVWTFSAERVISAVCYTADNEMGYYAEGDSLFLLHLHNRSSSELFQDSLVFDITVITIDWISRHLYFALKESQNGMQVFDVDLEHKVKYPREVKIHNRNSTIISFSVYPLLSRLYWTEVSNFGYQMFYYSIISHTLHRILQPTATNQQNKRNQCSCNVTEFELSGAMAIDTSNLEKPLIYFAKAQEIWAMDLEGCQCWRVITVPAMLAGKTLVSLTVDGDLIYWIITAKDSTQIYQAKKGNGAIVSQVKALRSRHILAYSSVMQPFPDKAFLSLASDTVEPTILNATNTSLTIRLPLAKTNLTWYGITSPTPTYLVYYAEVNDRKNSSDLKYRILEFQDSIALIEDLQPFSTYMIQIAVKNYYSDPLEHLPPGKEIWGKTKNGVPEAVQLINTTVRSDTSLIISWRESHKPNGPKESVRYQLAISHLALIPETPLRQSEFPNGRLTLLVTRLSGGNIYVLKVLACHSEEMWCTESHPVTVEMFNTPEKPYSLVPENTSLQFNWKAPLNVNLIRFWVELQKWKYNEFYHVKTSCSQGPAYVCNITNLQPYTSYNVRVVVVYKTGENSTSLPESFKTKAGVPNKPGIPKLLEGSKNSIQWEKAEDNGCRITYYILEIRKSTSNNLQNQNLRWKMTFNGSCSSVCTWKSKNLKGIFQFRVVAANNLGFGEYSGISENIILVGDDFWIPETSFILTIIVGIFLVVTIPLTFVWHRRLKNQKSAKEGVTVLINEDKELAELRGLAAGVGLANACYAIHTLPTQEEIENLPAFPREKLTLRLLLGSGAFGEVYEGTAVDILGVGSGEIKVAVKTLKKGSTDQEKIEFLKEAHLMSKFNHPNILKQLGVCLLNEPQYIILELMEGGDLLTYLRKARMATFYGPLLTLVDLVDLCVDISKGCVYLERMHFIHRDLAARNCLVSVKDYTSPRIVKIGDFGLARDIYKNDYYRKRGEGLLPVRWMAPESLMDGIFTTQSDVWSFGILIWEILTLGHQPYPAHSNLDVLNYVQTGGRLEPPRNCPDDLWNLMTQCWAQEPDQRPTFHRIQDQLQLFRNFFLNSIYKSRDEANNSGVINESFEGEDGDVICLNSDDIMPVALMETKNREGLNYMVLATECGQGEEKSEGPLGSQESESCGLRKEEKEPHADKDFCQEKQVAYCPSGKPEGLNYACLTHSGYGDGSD
Sequence of Mast/stem cell growth factor receptor Kit (Homo sapiens), P10721 [L576P] (P10721 whole entry L576P): as the sequence (P10721 whole entry) above, with L576P counted along it
Sequence of Sodium-dependent dopamine transporter (Q01959 whole entry): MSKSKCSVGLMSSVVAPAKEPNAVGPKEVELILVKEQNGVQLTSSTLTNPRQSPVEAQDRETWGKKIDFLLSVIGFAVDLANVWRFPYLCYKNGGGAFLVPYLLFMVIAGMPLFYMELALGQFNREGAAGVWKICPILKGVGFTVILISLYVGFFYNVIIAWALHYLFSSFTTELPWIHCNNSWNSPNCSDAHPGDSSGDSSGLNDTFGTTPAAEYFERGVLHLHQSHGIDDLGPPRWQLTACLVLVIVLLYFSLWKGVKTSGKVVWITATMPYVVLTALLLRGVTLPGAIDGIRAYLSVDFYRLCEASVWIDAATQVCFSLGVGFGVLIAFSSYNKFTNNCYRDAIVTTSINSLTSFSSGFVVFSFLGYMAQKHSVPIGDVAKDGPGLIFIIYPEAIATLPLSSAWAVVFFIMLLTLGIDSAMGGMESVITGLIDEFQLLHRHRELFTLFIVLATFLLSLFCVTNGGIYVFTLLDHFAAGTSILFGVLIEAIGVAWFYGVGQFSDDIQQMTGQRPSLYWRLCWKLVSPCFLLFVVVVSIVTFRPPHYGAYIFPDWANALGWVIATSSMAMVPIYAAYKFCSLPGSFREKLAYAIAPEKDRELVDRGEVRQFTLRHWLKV
Sequence of Mast/stem cell growth factor receptor Kit (Homo sapiens), P10721 [V559D,V654A] (P10721 whole entry V559D/V654A): as the sequence (P10721 whole entry) above, with V559D, V654A counted along it
Sequence of Mast/stem cell growth factor receptor Kit (Homo sapiens), P10721 [D816V] (P10721 whole entry D816V): as the sequence (P10721 whole entry) above, with D816V counted along it
Sequence of Casein kinase I isoform gamma-2 (Homo sapiens) (P78368 whole entry, looked up, canonical isoform): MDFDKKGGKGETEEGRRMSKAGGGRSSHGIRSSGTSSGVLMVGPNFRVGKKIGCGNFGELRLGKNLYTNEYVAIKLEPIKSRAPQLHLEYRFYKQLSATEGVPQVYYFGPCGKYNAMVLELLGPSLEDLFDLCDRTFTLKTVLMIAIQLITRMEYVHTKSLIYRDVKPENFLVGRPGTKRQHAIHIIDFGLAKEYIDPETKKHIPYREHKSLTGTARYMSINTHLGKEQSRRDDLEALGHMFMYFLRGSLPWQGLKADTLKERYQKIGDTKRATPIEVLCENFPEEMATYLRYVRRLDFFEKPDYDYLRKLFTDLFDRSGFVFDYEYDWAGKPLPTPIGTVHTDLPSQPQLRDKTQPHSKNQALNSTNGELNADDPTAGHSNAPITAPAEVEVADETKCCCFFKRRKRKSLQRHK

`CN1Cc2nccc(-c3cn(C)nc3-c3ccc(F)cc3)c2C1=O` was tested, and the % of inhibition [1] was 42%.

`Cn1cc(-n2cnc3c(NCc4nc5cc(Cl)c(Cl)cc5[nH]4)nc(N4CCOCC4)nc32)cn1` showed a % of control [2] of 0.847%.

In the case of `C=CC(=O)Nc1cccc(C(=O)Nc2ccc(Nc3cc(-c4[nH]c(SC)nc4C)ccn3)cc2)c1`, the % of control ([3]; at 1 µM) is reported as 106% and the % of control ([3]; at 5 µM) is reported as 85%.

`N#Cc1cccc(-c2c[nH]c3ncnc(N4CCOCC4)c23)c1` showed a % of control [4] of 82%, a % of control [5] of 90% and a % of control [6] of 89%.

Compound `O[C@H]1CC[C@H](Nc2ncc3nc(Nc4c(F)cc(F)cc4F)n([C@H]4CCOC4)c3n2)CC1` has a % of control [7] of 68%, a % of control [8] of 77% and a % of control [9] of 84%. It also gave a % of control [10] of 96% and a % of control [11] of 95%.

`CN(C)C(=O)Cn1cc(-c2ccc(-c3cncc4ccccc34)cc2)cn1` showed a % of control [12] of 87%.

`CN(C(=O)c1cnn2cccnc12)c1cc2c(cc1N1CCOCC1)C(=O)N(C[C@@H](F)C(C)(C)O)C2` gave a dTM [13] of 1.1 K.
